Among the data in PubChem BioAssay AID248 (DTP/NCI, 2004) are T/C values, retold here.

The subject of the test is L1210 leukemia ip in BDF1 mice, survival T/C. Kind of test: NCI In Vivo Anticancer Drug Screen. Data for tumor model L1210 Leukemia (intraperitoneal) in B6D2F1 (BDF1) mice. The settings on record: higher = longer survival. The method in brief:
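Read-out is survival time, reported as the treated-group measurement over the vehicle-control measurement.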

[1] abbreviates: endpoint: mean survival time, dose: 100.0 mg/kg/injection, schedule: Q04DX002 (ip), vehicle: Klucel (hydroxypropylcellulose) (HPC).
[2] abbreviates: endpoint: mean survival time, dose: 200.0 mg/kg/injection, schedule: Q04DX002 (ip), vehicle: Klucel (hydroxypropylcellulose) (HPC).
[3] abbreviates: endpoint: mean survival time, dose: 400.0 mg/kg/injection, schedule: Q04DX002 (ip), vehicle: Klucel (hydroxypropylcellulose) (HPC).
Setting [4] is: endpoint: mean survival time, dose: 100.0 mg/kg/injection, schedule: Q01DX009 (ip), vehicle: saline.
Where [5] appears, read: endpoint: mean survival time, dose: 200.0 mg/kg/injection, schedule: Q01DX009 (ip), vehicle: saline.

The structures appear in SMILES notation. Several values for one entry are separate records, joined by “and”; a condition that tells them apart may be missing. Identical values can stand only once. Inconclusive results and toxic doses are left out.

As for `C/C(=N/N=C(N)N)c1ccc(NC(=O)Nc2ccc(/C(C)=N/N=C(N)N)cc2)cc1`, the T/C reads like this: (endpoint: mean survival time, dose: 8.0 mg/kg/injection, schedule: Q03HX016 (ip), vehicle: other) 159 % of control; (endpoint: mean survival time, dose: 16.0 mg/kg/injection, schedule: Q01DX005 (ip), vehicle: other) 179 % of control; (endpoint: mean survival time, dose: 16.0 mg/kg/injection, schedule: Q01DX009 (ip), vehicle: other) 236 % of control; (endpoint: mean survival time, dose: 20.0 mg/kg/injection, schedule: Q01DX005 (ip), vehicle: saline) 121 % of control; (endpoint: mean survival time, dose: 32.0 mg/kg/injection, schedule: Q01DX005 (ip), vehicle: other) 213 % of control; (endpoint: mean survival time, dose: 32.0 mg/kg/injection, schedule: Q01DX009 (ip), vehicle: other) 239 % of control. Moreover, the T/C (endpoint: mean survival time, dose: 32.0 mg/kg/injection, schedule: Q01DX009 (ip), vehicle: water) is 154 % of control and 205 % of control; the T/C (endpoint: mean survival time, dose: 40.0 mg/kg/injection, schedule: Q01DX005 (ip), vehicle: saline) was 159 % of control; the T/C (endpoint: mean survival time, dose: 53.0 mg/kg/injection, schedule: Q01DX009 (ip), vehicle: water) was 218 % of control and 255 % of control; the T/C (endpoint: mean survival time, dose: 64.0 mg/kg/injection, schedule: Q01DX001 (ip), vehicle: other) is 116 % of control; the T/C (endpoint: mean survival time, dose: 64.0 mg/kg/injection, schedule: Q01DX001 (oral), vehicle: other) was 111 % of control; the T/C (endpoint: mean survival time, dose: 64.0 mg/kg/injection, schedule: Q01DX009 (oral), vehicle: other) was 111 % of control. In addition, the T/C was 159 % of control (endpoint: mean survival time, dose: 64.0 mg/kg/injection, schedule: Q04DX003 (ip), vehicle: other); 122 % of control (endpoint: mean survival time, dose: 64.0 mg/kg/injection, schedule: Q08DX002 (ip), vehicle: other); 206 % of control (endpoint: mean survival time, dose: 80.0 mg/kg/injection, schedule: Q01DX005 (ip), vehicle: saline); 223 % of control and 251 % of control (endpoint: mean survival time, dose: 88.0 mg/kg/injection, schedule: Q01DX009 (ip), vehicle: water); 101 % of control (endpoint: mean survival time, dose: 128.0 mg/kg/injection, schedule: Q01DX001 (oral), vehicle: other); 106 % of control (endpoint: mean survival time, dose: 128.0 mg/kg/injection, schedule: Q01DX009 (oral), vehicle: other). Moreover, the T/C (endpoint: mean survival time, dose: 147.0 mg/kg/injection, schedule: Q01DX009 (ip), vehicle: water) is 323 % of control; the T/C (endpoint: mean survival time, dose: 160.0 mg/kg/injection, schedule: Q01DX005 (ip), vehicle: saline) was 197 % of control; the T/C (endpoint: mean survival time, dose: 245.0 mg/kg/injection, schedule: Q01DX009 (ip), vehicle: water) is 227 % of control; the T/C (endpoint: mean survival time, dose: 256.0 mg/kg/injection, schedule: Q01DX001 (oral), vehicle: other) is 101 % of control; the T/C (endpoint: mean survival time, dose: 256.0 mg/kg/injection, schedule: Q01DX009 (oral), vehicle: other) is 108 % of control; the T/C (endpoint: mean survival time, dose: 320.0 mg/kg/injection, schedule: Q01DX005 (ip), vehicle: saline) is 173 % of control. Besides, the T/C was 96 % of control (endpoint: mean survival time, dose: 512.0 mg/kg/injection, schedule: Q01DX001 (oral), vehicle: other); 108 % of control (endpoint: mean survival time, dose: 512.0 mg/kg/injection, schedule: Q01DX009 (oral), vehicle: other); 97 % of control (endpoint: mean survival time, dose: 1024.0 mg/kg/injection, schedule: Q01DX001 (oral), vehicle: other); 109 % of control (endpoint: mean survival time, dose: 1024.0 mg/kg/injection, schedule: Q01DX009 (oral), vehicle: other); 152 % of control (endpoint: median survival time, dose: 5.0 mg/kg/injection, schedule: Q03HX024 (ip), vehicle: water); 302 % of control (endpoint: median survival time, dose: 15.0 mg/kg/injection, schedule: Q03HX024 (ip), vehicle: water). Besides, the T/C was 34 % of control (endpoint: median survival time, dose: 30.0 mg/kg/injection, schedule: Q03HX024 (ip), vehicle: water) and 31 % of control (endpoint: median survival time, dose: 45.0 mg/kg/injection, schedule: Q03HX024 (ip), vehicle: water).

`CCCCCCCCCCCCCCCCCCNC(=O)c1c(Br)c(Br)cc(Br)c1C(=O)O`: the T/C (endpoint: mean survival time, dose: 25.0 mg/kg/injection, schedule: Q04DX002 (ip), vehicle: Klucel (hydroxypropylcellulose) (HPC)) is 104 % of control; the T/C (endpoint: mean survival time, dose: 50.0 mg/kg/injection, schedule: Q04DX002 (ip), vehicle: Klucel (hydroxypropylcellulose) (HPC)) is 93 % of control; the T/C under setting [1] is 96 % of control; the T/C under setting [2] was 98 % of control and 87 % of control; the T/C under setting [3] was 90 % of control.

Take `c1cc2c(c(OCC3=NCCN3)c1)CCC2`: the T/C by setting is: (endpoint: mean survival time, dose: 10.0 mg/kg/injection, schedule: Q01DX009 (ip), vehicle: Klucel (hydroxypropylcellulose) (HPC)) 107 % of control; (endpoint: mean survival time, dose: 20.0 mg/kg/injection, schedule: Q01DX009 (ip), vehicle: Klucel (hydroxypropylcellulose) (HPC)) 105 % of control; (endpoint: mean survival time, dose: 40.0 mg/kg/injection, schedule: Q01DX009 (ip), vehicle: Klucel (hydroxypropylcellulose) (HPC)) 93 % of control.

With `CCC(=O)OC/C=C/c1ccccc1`, the T/C was 95 % of control under setting [4]; 100 % of control (endpoint: mean survival time, dose: 100.0 mg/kg/injection, schedule: Q04DX003 (ip), vehicle: alcohol); 102 % of control under setting [5]; 98 % of control (endpoint: mean survival time, dose: 200.0 mg/kg/injection, schedule: Q04DX003 (ip), vehicle: alcohol); 95 % of control (endpoint: mean survival time, dose: 400.0 mg/kg/injection, schedule: Q01DX009 (ip), vehicle: saline); 94 % of control (endpoint: mean survival time, dose: 400.0 mg/kg/injection, schedule: Q04DX003 (ip), vehicle: alcohol).

With `NC1CC[N-]CC1.NC1CC[N-]CC1.[Cl][Pt+2][Cl]`, the T/C runs as follows: (endpoint: mean survival time, dose: 50.0 mg/kg/injection, schedule: Q04DX003 (ip), vehicle: saline) 108 % of control; under setting [4], 94 % of control; (endpoint: mean survival time, dose: 100.0 mg/kg/injection, schedule: Q04DX003 (ip), vehicle: saline) 102 % of control; under setting [5], 100 % of control; (endpoint: mean survival time, dose: 200.0 mg/kg/injection, schedule: Q04DX003 (ip), vehicle: saline) 108 % of control; (endpoint: mean survival time, dose: 400.0 mg/kg/injection, schedule: Q04DX003 (ip), vehicle: saline) 100 % of control.

As to `Cc1nonc1C(N)=O`, the T/C under setting [1] is 109 % of control, the T/C under setting [2] is 102 % of control and the T/C under setting [3] is 95 % of control.

`O=C1OC2C(O)C(CO)OC2n2c1cc(=O)[nH]c2=O` (centres undefined): the T/C reads like this: (endpoint: mean survival time, dose: 100.0 mg/kg/injection, schedule: Q01DX005 (ip), vehicle: saline) 111 % of control; (endpoint: mean survival time, dose: 200.0 mg/kg/injection, schedule: Q01DX005 (ip), vehicle: saline) 104 % of control.

`CO[C@H]1Nc2c(ccc(C)c2O)C(=O)N2C=C(/C=C/C(N)=O)C[C@@H]12`: the T/C runs as follows: (endpoint: mean survival time, dose: 0.05 mg/kg/injection, schedule: Q01DX015 (ip), vehicle: saline) 104 % of control; (endpoint: mean survival time, dose: 0.08 mg/kg/injection, schedule: Q04DX003 (ip), vehicle: saline with Tween-80) 112 % of control; (endpoint: mean survival time, dose: 0.1 mg/kg/injection, schedule: Q01DX015 (ip), vehicle: saline) 112 % of control; (endpoint: mean survival time, dose: 0.16 mg/kg/injection, schedule: Q04DX003 (ip), vehicle: saline with Tween-80) 93 % of control; (endpoint: mean survival time, dose: 0.2 mg/kg/injection, schedule: Q01DX015 (ip), vehicle: saline) 112 % of control; (endpoint: mean survival time, dose: 0.21 mg/kg/injection, schedule: Q01DX015 (ip), vehicle: saline) 114 % of control. For the same molecule, the T/C by setting is: (endpoint: mean survival time, dose: 0.25 mg/kg/injection, schedule: Q01DX001 (ip), vehicle: saline) 117 % of control; (endpoint: mean survival time, dose: 0.36 mg/kg/injection, schedule: Q01DX015 (ip), vehicle: saline) 118 % of control; (endpoint: mean survival time, dose: 0.4 mg/kg/injection, schedule: Q01DX015 (ip), vehicle: saline) 110 % of control; (endpoint: mean survival time, dose: 0.5 mg/kg/injection, schedule: Q01DX001 (ip), vehicle: saline) 117 % of control; (endpoint: mean survival time, dose: 0.6 mg/kg/injection, schedule: Q01DX015 (ip), vehicle: saline) 115 % of control and 117 % of control; (endpoint: mean survival time, dose: 1.0 mg/kg/injection, schedule: Q01DX015 (ip), vehicle: saline) 98 % of control. In addition, the T/C reads like this: (endpoint: mean survival time, dose: 1.3 mg/kg/injection, schedule: Q01DX001 (ip), vehicle: saline) 156 % of control; (endpoint: mean survival time, dose: 25.0 micrograms/kg/injection, schedule: Q04DX003 (ip), vehicle: saline) 121 % of control; (endpoint: mean survival time, dose: 50.0 micrograms/kg/injection, schedule: Q04DX003 (ip), vehicle: saline) 102 % of control; (endpoint: mean survival time, dose: 100.0 micrograms/kg/injection, schedule: Q04DX003 (ip), vehicle: saline) 114 % of control; (endpoint: mean survival time, dose: 200.0 micrograms/kg/injection, schedule: Q04DX003 (ip), vehicle: saline) 107 % of control.
